Experimental data published in patent US8217005B2 (priority 2006, dated 2012).

Key:
human μ-opioid receptor = target: T1, human μ-opioid receptor (Homo sapiens, UniProt P35372); assay: biochemical; assay type: binding
T1 construct: expressed in transfected cells; host or cells: HEK-293 cells

[1] = rat, in vivo
[2] = male, Sprague-Dawley, rat, in vivo, 0.5 mg/kg

T1 sequence (P35372 whole entry): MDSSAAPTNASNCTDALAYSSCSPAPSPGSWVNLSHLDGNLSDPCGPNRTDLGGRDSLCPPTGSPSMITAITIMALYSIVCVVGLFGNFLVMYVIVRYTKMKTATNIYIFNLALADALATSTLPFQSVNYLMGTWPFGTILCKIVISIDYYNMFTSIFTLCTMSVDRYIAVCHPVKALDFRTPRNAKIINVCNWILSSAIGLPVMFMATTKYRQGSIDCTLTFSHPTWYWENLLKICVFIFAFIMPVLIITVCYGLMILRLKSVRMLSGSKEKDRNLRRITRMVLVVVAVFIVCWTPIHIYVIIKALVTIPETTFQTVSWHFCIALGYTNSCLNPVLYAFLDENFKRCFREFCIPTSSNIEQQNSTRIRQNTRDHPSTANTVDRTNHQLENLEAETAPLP

CN(CCNC(=O)[C@@H](N)CCCNC(=N)N)C(=O)Oc1ccc2c3c1OC1C(=O)CCC4[C@@H](C2)N(C)CC[C@]314 (stereo partly drawn) [Example 1, Hydromorphone 3-(N-methyl-N-(2-arginylamino))ethylcarbamate]
IC50 (human μ-opioid receptor): 2.1 µM

CC(=O)N[C@@H](CCCNC(=N)N)C(=O)NCCN(C)C(=O)Oc1ccc2c3c1OC1C(=O)CCC4[C@@H](C2)N(C)CC[C@]314 (stereo partly drawn) [Example 3, Hydromorphone 3-(N-methyl-N-(2-N′-acetylarginylamino))ethylcarbamate]
IC50 (human μ-opioid receptor): 1.3 µM

CN(CCNC(=O)[C@H](CCCNC(=N)N)NC(=O)c1ccc2c(c1)OCO2)C(=O)Oc1ccc2c3c1OC1C(=O)CCC4[C@@H](C2)N(C)CC[C@]314 (stereo partly drawn) [Example 6, Hydromorphone 3-(N-methyl-N-(N′-piperonyl-2-arginylamino))ethylcarbamate]
IC50 (human μ-opioid receptor): 0.79 µM

CN(CCNC(=O)[C@@H](N)CCCCN)C(=O)Oc1ccc2c3c1OC1C(=O)CCC4[C@@H](C2)N(C)CC[C@]314 (stereo partly drawn) [Example 7, Hydromorphone 3-(N-methyl-N-(2-lysinylamino))ethylcarbamate]
IC50 (human μ-opioid receptor): 0.79 µM

CN(CCN)C(=O)Oc1ccc2c3c1O[C@H]1C(=O)CC[C@@]4(O)[C@@H](C2)[N+](C)(CC2CC2)CC[C@]314.Cl.[Cl-] (stereo partly drawn) [Example 19]
pharmacokinetic profile (e.g. oral bioavailability), FIG. 1 ([1]; 20 mg/kg): improved pharmacokinetic profile | Cmax value compared to (R)-N-methylnaltrexone ([1]; po): superior

C[N@+]1(CC2CC2)CC[C@]23c4c5ccc(O)c4O[C@H]2C(=O)CC[C@@]3(O)[C@H]1C5 [N-methylnaltrexone, (R)—N-methylnaltrexone, reference compound]
Cmax N-MTX following PO dosing ([1]; 20 mg/kg): 6 ng/mL | pharmacokinetic profile (e.g. oral bioavailability), FIG. 1 ([1]; 20 mg/kg): poor pharmacokinetic profile

CN1CC[C@]23c4c5ccc(O)c4O[C@H]2C(=O)CC[C@@]3(O)[C@H]1C5 [oxymorphone]
Cmax OM following IV dosing [2]: 432 ng/mL
